Assay results reported in ChEMBL document CHEMBL3232851 (Bioorg Med Chem, 2014).

Legend:
[1] = Membrane permeabilizing activity of the compound in calcein-loaded egg phosphatidylcholine liposomes assessed as release of calcein from liposomes at pH 6.8 after 10 mins by fluorescence assay; format: ADME, Microsome
COX-2 = experiment: Ratio of EC50 for membrane permeabilization to IC50 for human recombinant COX-2
[2] = target: T1, Prostaglandin G/H synthase 1 (Ovis aries, UniProt P05979); experiment: Inhibition of purified ovine COX-1 by enzyme immunoassay
T1 sequence (P05979 whole entry): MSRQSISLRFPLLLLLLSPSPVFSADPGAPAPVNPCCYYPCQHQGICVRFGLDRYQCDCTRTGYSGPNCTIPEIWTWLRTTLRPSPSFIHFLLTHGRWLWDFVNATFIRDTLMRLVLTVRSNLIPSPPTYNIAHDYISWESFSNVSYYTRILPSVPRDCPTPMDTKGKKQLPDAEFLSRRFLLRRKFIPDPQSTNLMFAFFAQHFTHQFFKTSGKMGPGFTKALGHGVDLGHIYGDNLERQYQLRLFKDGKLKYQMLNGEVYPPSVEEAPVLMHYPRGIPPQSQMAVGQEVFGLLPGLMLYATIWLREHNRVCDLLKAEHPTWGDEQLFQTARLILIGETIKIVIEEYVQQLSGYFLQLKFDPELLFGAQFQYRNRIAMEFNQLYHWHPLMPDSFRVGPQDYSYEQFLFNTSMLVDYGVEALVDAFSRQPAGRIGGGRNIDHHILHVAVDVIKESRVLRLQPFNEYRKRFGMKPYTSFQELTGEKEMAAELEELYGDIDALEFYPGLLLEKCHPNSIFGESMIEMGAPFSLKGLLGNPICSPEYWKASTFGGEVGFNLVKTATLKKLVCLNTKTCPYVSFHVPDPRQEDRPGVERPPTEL

[3] = target: T2, Prostaglandin G/H synthase 2 (Homo sapiens, UniProt P35354); experiment: Inhibition of human recombinant COX-2 by enzyme immunoassay
T2 sequence (P35354 whole entry): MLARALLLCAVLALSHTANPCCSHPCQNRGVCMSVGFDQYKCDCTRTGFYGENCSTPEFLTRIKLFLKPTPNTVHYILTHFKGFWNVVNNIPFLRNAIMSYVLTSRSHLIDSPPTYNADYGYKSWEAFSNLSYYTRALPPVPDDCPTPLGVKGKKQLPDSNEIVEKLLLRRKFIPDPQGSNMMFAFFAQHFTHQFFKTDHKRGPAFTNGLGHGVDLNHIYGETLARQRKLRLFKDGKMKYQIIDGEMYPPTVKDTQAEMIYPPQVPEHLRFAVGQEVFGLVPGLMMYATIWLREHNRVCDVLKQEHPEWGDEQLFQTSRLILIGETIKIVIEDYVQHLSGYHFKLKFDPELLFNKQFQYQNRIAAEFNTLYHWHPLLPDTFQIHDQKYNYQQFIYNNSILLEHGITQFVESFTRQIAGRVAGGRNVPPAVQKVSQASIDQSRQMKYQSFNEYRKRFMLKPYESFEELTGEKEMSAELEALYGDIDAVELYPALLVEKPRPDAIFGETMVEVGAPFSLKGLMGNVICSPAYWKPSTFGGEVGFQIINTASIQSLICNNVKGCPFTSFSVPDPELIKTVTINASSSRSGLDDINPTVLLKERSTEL

SMILES: NS(=O)(=O)c1ccc(C2=C(c3ccccc3)C(=O)OC2)cc1
- EC50 [1]: 480 µM

SMILES: Cc1ccc(-c2cc(C(F)(F)F)nn2-c2ccc(S(C)(=O)=O)cc2)cc1
- EC50 [1]: 1440 µM
- calcein release EC50/COX-2 IC50 ratio (COX-2): 11.1
- IC50 [2]: > 500 µM
- IC50 [3]: 0.13 µM

SMILES: CS(=O)(=O)c1ccc(-n2nc(C(F)(F)F)cc2-c2ccccc2)cc1
- EC50 [1]: 1300 µM
- calcein release EC50/COX-2 IC50 ratio (COX-2): 0.19
- IC50 [2]: > 500 µM
- IC50 [3]: 6.84 µM

SMILES: Cc1ccc(C2=C(c3ccc(S(C)(=O)=O)cc3)COC2=O)cc1
- EC50 [1]: 6230 µM
- calcein release EC50/COX-2 IC50 ratio (COX-2): 20.8
- IC50 [2]: > 500 µM
- IC50 [3]: 0.3 µM

SMILES: Cc1ccc(C2=C(c3ccc(S(N)(=O)=O)cc3)COC2=O)cc1
- EC50 [1]: 24 µM
- calcein release EC50/COX-2 IC50 ratio (COX-2): 0.22
- IC50 [2]: 385 µM
- IC50 [3]: 0.11 µM

SMILES: Cc1ccc(-c2cc(C(F)(F)F)nn2-c2ccc(S(N)(=O)=O)cc2)cc1 [CELECOXIB]
- EC50 [1]: 50 µM

SMILES: CS(=O)(=O)c1ccc(C2=C(c3ccccc3)C(=O)OC2)cc1 [ROFECOXIB]
- EC50 [1]: 12600 µM
